# In publication PMC12396409, “Screening and hit evaluation of a microbial metabolite library against the pathogenic Plasmodium falciparum and Toxoplasma gondii parasites” (International Journal for Parasitology: Drugs and Drug …, 2025):
# Read-outs that look alike come from different tables or passages of the source. Where a SMILES comes first, the peptide text is derived from it. [ ]: non-standard residue; d: D form. aIle = CC[C@@H](C)[C@H](N)C(=O)O
# Legend:
# [1] = tested on: P. falciparum 3D7 parasites; test: P. falciparum growth inhibition assay, 1-cycle (72 h treatment), SYBR DNA staining (library screen at 2 μg/mL and dose-response); format: cell-based, Plasmodium falciparum; details: for Pf_72h_%Growth_Rep1 / Pf_72h_%Growth_Rep2 / activity at 2 µg/mL / Screen (P. falciparum): library screen at 2 μg/mL; for Pf_72h_%Growth_Rep1 / Pf_72h_%Growth_Rep2 / activity at 2 µg/mL: 72 h, % growth; for activity at 2 µg/mL: Plasmodium falciparum; for Screen (P. falciparum): DD from the 120 h timepoint
# [2] = tested on: P. falciparum 3D7 parasites; test: P. falciparum growth inhibition assay, 2-cycle (120 h treatment), delayed-death screen and dose-response; format: cell-based, Plasmodium falciparum; details: library screen at 2 μg/mL, 120 h, % growth; for activity at 2 µg/mL: Plasmodium falciparum
# [3] = tested on: T. gondii RH strain (RH-Tub-eYFP) tachyzoites; test: microbe, parasite or virus in culture; format: cell-based, Toxoplasma gondii; details: library screen at 2 μg/mL, 72 h; for Tg_72h_%Growth_Rep1 / Tg_72h_%Growth_Rep2 / percent parasite growth at 2 µg/mL: % growth; for percent parasite growth at 2 µg/mL: Toxoplasma gondii
# [4] = 3D7, replicate 1, read-out: Pf_72h_%Growth_Rep1
# [5] = 3D7, replicate 2, read-out: Pf_72h_%Growth_Rep2
# [6] = 3D7, replicate 1, read-out: Pf_120h_%Growth_Rep1
# [7] = 3D7, replicate 2, read-out: Pf_120h_%Growth_Rep2
# [8] = replicate 1, read-out: Tg_72h_%Growth_Rep1
# [9] = replicate 2, read-out: Tg_72h_%Growth_Rep2
# [10] = 3D7, 72 h, replicate 1, read-out: Pf_72h_%Growth_Rep1
# [11] = 3D7, 72 h, replicate 2, read-out: Pf_72h_%Growth_Rep2
# [12] = 3D7, 120 h, replicate 1, read-out: Pf_120h_%Growth_Rep1
# [13] = 3D7, 120 h, replicate 2, read-out: Pf_120h_%Growth_Rep2
SMILES,Pf_72h_%Growth_Rep1 ([1]; replicate 1) [%],Pf_72h_%Growth_Rep2 ([1]; replicate 2) [%],Pf_120h_%Growth_Rep1 ([2]; replicate 1) [%],Pf_120h_%Growth_Rep2 ([2]; replicate 2) [%],Tg_72h_%Growth_Rep1 ([3]; replicate 1) [%],Tg_72h_%Growth_Rep2 ([3]; replicate 2) [%],also measured
"COC1=C(N)C(=O)c2nc(-c3nc(C(=O)O)c(C)c(-c4cccc(OC)c4O)c3N)ccc2C1=O [Desmethoxystreptonigrin, 10'-]",2.87,4.81,0.15,8.14,4.18,4.20,–
CC[C@@H](C)[C@@H]1NC(=O)[C@@H](CC(C)C)NC(=O)[C@H](CC(C)C)NC(=O)[C@H](Cc2c[nH]c3ccccc23)NC(=O)CNC(=O)[C@H](CC(N)=O)NC1=O [Desotamide] (cyclo(GWL[dL][aIle]N)),–,–,–,–,–,–,"activity at 2 µg/mL [1, 4]: 67.3%; activity at 2 µg/mL [1, 5]: 64.4%; activity at 2 µg/mL [2, 6]: 36%; activity at 2 µg/mL [2, 7]: 50.7%; percent parasite growth at 2 µg/mL [3, 8]: 120%; percent parasite growth at 2 µg/mL [3, 9]: 93%"
COc1c(O)c2c(=O)cc3c4c5c(cc(=O)c6c(O)c(OC)c(C[C@H](C)OC(C)=O)c(c(c1C[C@H](C)OC(C)=O)c24)c65)OCO3 [Diacetylcercosporin],2.60,15.99,-5.54,6.35,4.49,14.87,–
CC(=O)c1c(O)cc(O)c(C(C)=O)c1O [Diacetylphloroglucinol],86.52,90.35,64.84,102.18,140.70,94.75,–
CCc1cc(O)cc(O)c1C(=O)O[C@H]1[C@H](O)[C@H](OC)[C@H](OC/C2=C\C=C\C[C@H](O)/C(C)=C/[C@H](CC)[C@@H](O[C@@H]3OC(C)(C)[C@@H](OC(=O)C(C)C)[C@H](O)[C@@H]3O)/C(C)=C/C(C)=C/C[C@@H]([C@@H](C)O)OC2=O)O[C@@H]1C [Didechlorofidaxomicin],4.39,6.69,14.52,29.62,110.91,90.14,–
COc1cc(C)c(C(=O)Oc2cc(C)c(C(=O)O)c(O)c2C)c(OC)c1C [Diffractaic acid],–,–,–,–,–,–,"activity at 2 µg/mL [1, 4]: 80.1%; activity at 2 µg/mL [1, 5]: 79.9%; activity at 2 µg/mL [2, 6]: 91.2%; activity at 2 µg/mL [2, 7]: 81.2%; percent parasite growth at 2 µg/mL [3, 8]: 133%; percent parasite growth at 2 µg/mL [3, 9]: 97.5%"
O=C(O)C1CSC(c2ccccc2O)=N1 (stereo not shown) [Dihydroaeruginoic acid],74.36,72.53,53.55,57.05,51.46,84.93,–
CC(C)CCC[C@@H](C)[C@@H]1CC[C@]2(C)C3=C(CC[C@@]12C)[C@@]1(C)CC[C@H](O)C(C)(C)[C@@H]1CC3 [Dihydroeuphol],82.89,91.07,82.20,96.98,139.10,102.23,–
CO[C@@H]1[C@@H](OC(N)=O)[C@@H](O)[C@H](Oc2ccc3c(O)c(NC(=O)c4ccc(O)c(CCC(C)C)c4)c(=O)oc3c2C)OC1(C)C [Dihydronovobiocin],88.16,85.96,93.97,91.59,162.91,101.29,–
CC[C@]1(C)C[C@@H](OC(=O)CO)C2(C)[C@H](C)CCC3(CCC(=O)[C@H]32)[C@@H](C)[C@@H]1O (stereo partly shown) [Dihydropleuromutilin],84.27,76.59,42.82,51.71,80.68,63.68,"Screen (P. falciparum) ([1]; 3D7, 72 h): I, I; Screen (T. gondii) ([3]; RH strain): I, I"
CC[C@H]1CCC[C@H](O)[C@@H](C)C(=O)C2=C[C@H]3[C@@H]4C[C@H](O)C[C@H]4CC[C@H]3[C@@H]2CC(=O)O1 [Dihydrospinosyn A aglycone],96.92,105.46,88.50,102.89,141.87,82.63,"IC50 ([1]; 3D7, 72 h treatment, mean ± S.D., n ≥ 3, read-out: IC50 (μM), P. falciparum): > 1 µM; Screen (P. falciparum) ([1]; 3D7, 72 h): I"
CC[C@@H]1C[C@H]2CC[C@H](O2)[C@H](C)C(=O)O[C@@H](C)C[C@@H]2CC[C@@H](O2)[C@@H](C)C(=O)O[C@H](CC)C[C@H]2CC[C@H](O2)[C@H](C)C(=O)O[C@@H](C)C[C@@H]2CC[C@@H](O2)[C@@H](C)C(=O)O1 [Dinactin],–,–,–,–,–,–,"activity at 2 µg/mL [1, 10]: 3.66%; activity at 2 µg/mL [1, 11]: -1.84%; activity at 2 µg/mL [2, 12]: 15.7%; activity at 2 µg/mL [2, 13]: 11%; percent parasite growth at 2 µg/mL [3, 8]: 5.15%; percent parasite growth at 2 µg/mL [3, 9]: 2.32%"
CC[C@H]1OC(=O)[C@H](C)[C@@H](O[C@H]2C[C@@](C)(OC)[C@@H](O)[C@H](C)O2)[C@H](C)[C@@H](O[C@@H]2O[C@H](C)C[C@H](N(C)C)[C@H]2O)[C@](C)(O)C[C@@H](C)[C@@H]2N[C@@H](COCCOC)O[C@H]([C@H]2C)[C@]1(C)O [Dirithromycin],–,–,–,–,–,–,"activity at 2 µg/mL [1, 10]: 80.4%; activity at 2 µg/mL [1, 11]: 73.2%; activity at 2 µg/mL [2, 12]: 62.1%; activity at 2 µg/mL [2, 13]: 48.4%; percent parasite growth at 2 µg/mL [3, 8]: 67.5%; percent parasite growth at 2 µg/mL [3, 9]: 74.8%"
CCCCCCCCCCCC(=O)N[C@H]1CCOC1=O [Dodecanoyl-L-homoserine lactone],84.60,89.07,96.32,89.02,110.87,103.60,–
CC1=C[C@H]2C(=O)O[C@H]3C[C@@H](C/C=C(/C)[C@@H](O)[C@@H](C)/C=C\C=C4CO[C@H]([C@@H]1O)[C@@]42O)O[C@@]1(C=C[C@H](C)[C@@H](C2CCCCC2)O1)C3 [Doramectin aglycone],80.09,78.66,86.97,81.83,167.81,107.39,–
CO[C@H]1C[C@H](O[C@@H]2/C(C)=C/C[C@@H]3C[C@@H](C[C@]4(C=C[C@H](C)[C@@H](C5CCCCC5)O4)O3)OC(=O)[C@@H]3C=C(C)[C@@H](O)[C@H]4OC/C(=C\C=C\[C@@H]2C)[C@]43O)O[C@@H](C)[C@@H]1O [Doramectin monosaccharide],77.72,82.97,94.58,82.00,100.60,107.16,–
"CO[C@H]1C[C@H](O[C@H]2[C@H](C)O[C@@H](O[C@@H]3/C(C)=C/C[C@@H]4C[C@@H](C[C@]5(C=C[C@H](C)[C@@H](C6CCCCC6)O5)O4)OC(=O)C4=C[C@H](C)[C@@H](O)[C@H]5OC/C(=C\C=C[C@@H]3C)[C@@]45O)C[C@@H]2OC)O[C@@H](C)[C@@H]1O [Doramectin, delta2-]",3.28,1.57,4.07,0.97,85.18,104.19,–
